This passage reports Emax and DC50 results from patent publication US20230002367A1, “BIFUNCTIONAL COMPOUNDS” (Hoffmann-La Roche Inc., priority 2019, published 2023).

The assay has as its target T1, SMARCA2 (Homo sapiens, UniProt P51531).
T1 construct: endogenous in cells
The experiment in a line: SMARCA2 HiBiT degradation assay (cellular). In kind it is cell-based. The following applies: for Emax: A549, Emax = amount of residual protein remaining in the cell following compound treatment; for DC50: SMARCA2 HiBiT cells, luminescence readout, 11-point titration from 10 μM, 6 hours or 16 hours, read-out: HiBit A549 SMARCA2 IP. (The HiBiT peptide binds its large partner to form an active luciferase.)

The Emax is the size of the effect at its maximum, as opposed to the concentration needed.

T1 sequence (P51531 whole entry): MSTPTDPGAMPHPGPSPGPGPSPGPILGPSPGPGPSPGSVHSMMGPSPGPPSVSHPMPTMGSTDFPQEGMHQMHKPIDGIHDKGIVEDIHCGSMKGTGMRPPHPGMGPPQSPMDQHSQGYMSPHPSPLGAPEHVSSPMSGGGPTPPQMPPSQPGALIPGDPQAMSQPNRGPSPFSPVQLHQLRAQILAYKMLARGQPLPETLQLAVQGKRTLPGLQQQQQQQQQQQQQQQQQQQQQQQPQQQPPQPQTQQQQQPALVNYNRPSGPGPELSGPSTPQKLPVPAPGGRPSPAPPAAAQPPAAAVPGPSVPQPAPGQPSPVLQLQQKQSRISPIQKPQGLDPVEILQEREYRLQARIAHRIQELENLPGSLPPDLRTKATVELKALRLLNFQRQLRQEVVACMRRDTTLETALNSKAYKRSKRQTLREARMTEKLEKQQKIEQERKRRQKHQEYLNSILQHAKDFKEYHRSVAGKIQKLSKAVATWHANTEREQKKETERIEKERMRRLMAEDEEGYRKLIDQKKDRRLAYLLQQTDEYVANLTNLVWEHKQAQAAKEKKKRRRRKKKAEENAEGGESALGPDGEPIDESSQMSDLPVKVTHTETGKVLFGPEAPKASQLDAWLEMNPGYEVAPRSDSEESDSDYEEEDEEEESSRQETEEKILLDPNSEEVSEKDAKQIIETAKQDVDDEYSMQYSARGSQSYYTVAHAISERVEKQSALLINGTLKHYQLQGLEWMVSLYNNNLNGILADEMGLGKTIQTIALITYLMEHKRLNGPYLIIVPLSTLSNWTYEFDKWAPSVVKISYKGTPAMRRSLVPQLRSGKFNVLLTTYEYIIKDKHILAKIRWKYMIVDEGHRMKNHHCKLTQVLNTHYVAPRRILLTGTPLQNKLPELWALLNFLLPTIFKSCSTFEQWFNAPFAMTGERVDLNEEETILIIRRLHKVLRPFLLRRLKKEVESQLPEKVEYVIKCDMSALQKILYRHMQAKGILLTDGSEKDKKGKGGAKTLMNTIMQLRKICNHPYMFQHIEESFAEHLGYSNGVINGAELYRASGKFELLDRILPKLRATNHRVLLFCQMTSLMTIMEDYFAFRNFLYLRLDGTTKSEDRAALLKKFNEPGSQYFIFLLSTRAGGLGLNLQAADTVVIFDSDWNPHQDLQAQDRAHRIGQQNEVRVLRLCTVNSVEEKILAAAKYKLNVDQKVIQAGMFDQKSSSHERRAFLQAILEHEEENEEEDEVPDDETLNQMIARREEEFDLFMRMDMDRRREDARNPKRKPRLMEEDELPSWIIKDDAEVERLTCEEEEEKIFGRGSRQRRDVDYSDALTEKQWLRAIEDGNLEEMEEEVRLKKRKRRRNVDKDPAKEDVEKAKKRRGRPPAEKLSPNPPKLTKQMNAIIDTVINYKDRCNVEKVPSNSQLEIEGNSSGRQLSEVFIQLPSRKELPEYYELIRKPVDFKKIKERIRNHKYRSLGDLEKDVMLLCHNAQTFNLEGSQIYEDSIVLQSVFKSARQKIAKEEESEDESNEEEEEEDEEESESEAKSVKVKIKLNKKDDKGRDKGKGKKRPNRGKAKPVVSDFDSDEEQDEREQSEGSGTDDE

On to `Cc1ncsc1-c1ccc([C@H](C)NC(=O)[C@@H]2C[C@@H](O)CN2C(=O)[C@@H](NC(=O)CCCCCCCCCCC(=O)N(C)CCCN(C)c2ccc(CCOc3cc(-c4ccccc4O)nnc3N)cc2)C(C)(C)C)cc1` (racemic) [Example 27, N′-[3-[4-[2-[3-amino-6-(2-hydroxyphenyl)pyridazin-4-yl]oxyethyl]-N-methyl-anilino]propyl]-N′-methyl-N-[rac-(1S)-2,2-dimethyl-1-[rac-(2S,4R)-4-hydroxy-2-[[rac-(1S)-1-[4-(4-methylthiazol-5-yl)phenyl]ethyl]carbamoyl]pyrrolidine-1-carbonyl]propyl]dodecanediamide], for which the Emax turned out to be 33% and the DC50 was determined as 330 nM.

As to `Cc1ncsc1-c1ccc([C@H](C)NC(=O)[C@@H]2C[C@@H](O)CN2C(=O)[C@@H](NC(=O)CCCCCCCCC(=O)N(C)CCCN(C)c2ccc(CCOc3cc(-c4ccccc4O)nnc3N)cc2)C(C)(C)C)cc1` (racemic) [Example 28, N′-[3-[4-[2-[3-amino-6-(2-hydroxyphenyl)pyridazin-4-yl]oxyethyl]-N-methyl-anilino]propyl]-N′-methyl-N-[rac-(1S)-2,2-dimethyl-1-[rac-(2S,4R)-4-hydroxy-2-[[rac-(1S)-1-[4-(4-methylthiazol-5-yl)phenyl]ethyl]carbamoyl]pyrrolidine-1-carbonyl]propyl]decanediamide], the Emax came to 46% and the DC50 stood at 515 nM.

On to `Cc1ncsc1-c1ccc([C@H](C)NC(=O)[C@@H]2C[C@@H](O)CN2C(=O)[C@@H](NC(=O)CCCCCC(=O)N2CCN(c3ccc(N4CCCC(Oc5cc(-c6ccccc6O)nnc5N)C4)cc3)CC2)C(C)(C)C)cc1` (mixture of isomers) [Example 32, rac-(2S,4R)-4-hydroxy-1-[rac-(2S)-2-[[7-[4-[4-[3-[3-amino-6-(2-hydroxyphenyl)pyridazin-4-yl]oxy-1-piperidyl]phenyl]piperazin-1-yl]-7-oxo-heptanoyl]amino]-3,3-dimethyl-butanoyl]-N-[rac-(1S)-1-[4-(4-methylthiazol-5-yl)phenyl]ethyl]pyrrolidine-2-carboxamide], for which the Emax stood at 20% and the DC50 turned out to be 119 nM.

For the compound `Cc1ncsc1-c1ccc([C@H](C)NC(=O)[C@@H]2C[C@@H](O)CN2C(=O)[C@@H](NC(=O)CCCCCCCCC(=O)N2CCN(c3ccc(N4CCCC(Oc5cc(-c6ccccc6O)nnc5N)C4)cc3)CC2)C(C)(C)C)cc1` (mixture of isomers) [Example 33, rac-(2S,4R)-4-hydroxy-1-[rac-(2S)-2-[[10-[4-[4-[3-[3-amino-6-(2-hydroxyphenyl)pyridazin-4-yl]oxy-1-piperidyl]phenyl]piperazin-1-yl]-10-oxo-decanoyl]amino]-3,3-dimethyl-butanoyl]-N-[rac-(1S)-1-[4-(4-methylthiazol-5-yl)phenyl]ethyl]pyrrolidine-2-carboxamide], the Emax stood at 22% and the DC50 was 73 nM.

Turning to `Cc1ncsc1-c1ccc([C@H](C)NC(=O)[C@@H]2C[C@@H](O)CN2C(=O)[C@@H](NC(=O)CCOCCOCCC(=O)N2CCN(c3ccc(N4CCCC(Oc5cc(-c6ccccc6O)nnc5N)C4)cc3)CC2)C(C)(C)C)cc1` (mixture of isomers) [Example 34, rac-(2S,4R)-4-hydroxy-1-[rac-(2S)-2-[3-[2-[3-[4-[4-[3-[3-amino-6-(2-hydroxyphenyl)pyridazin-4-yl]oxy-1-piperidyl]phenyl]piperazin-1-yl]-3-oxo-propoxy]ethoxy]propanoylamino]-3,3-dimethyl-butanoyl]-N-[rac-(1S)-1-[4-(4-methylthiazol-5-yl)phenyl]ethyl]pyrrolidine-2-carboxamide], the Emax is 47% and the DC50 amounted to 1100 nM.

As for `Cc1ncsc1-c1ccc([C@H](C)NC(=O)[C@@H]2C[C@@H](O)CN2C(=O)[C@@H](NC(=O)CCOCCC(=O)N2CCN(c3ccc(CN4CCCC(Oc5cc(-c6ccccc6O)nnc5N)C4)cc3)CC2)C(C)(C)C)cc1` (mixture of isomers) [Example 38, rac-(2S,4R)-4-hydroxy-1-[rac-(2S)-2-[3-[3-[4-[4-[[3-[3-amino-6-(2-hydroxyphenyl)pyridazin-4-yl]oxy-1-piperidyl]methyl]phenyl]piperazin-1-yl]-3-oxo-propoxy]propanoylamino]-3,3-dimethyl-butanoyl]-N-[rac-(1S)-1-[4-(4-methylthiazol-5-yl)phenyl]ethyl]pyrrolidine-2-carboxamide], the Emax came out at 70% and the DC50 turned out to be 589 nM.

For `Cc1ncsc1-c1ccc([C@H](C)NC(=O)[C@@H]2C[C@@H](O)CN2C(=O)[C@@H](NC(=O)CCC(=O)N2CCN(c3ccc(CN4CCCC(Oc5cc(-c6ccccc6O)nnc5N)C4)cc3)CC2)C(C)(C)C)cc1` (mixture of isomers) [Example 39, rac-(2S,4R)-4-hydroxy-1-[rac-(2S)-2-[[4-[4-[4-[[3-[3-amino-6-(2-hydroxyphenyl)pyridazin-4-yl]oxy-1-piperidyl]methyl]phenyl]piperazin-1-yl]-4-oxo-butanoyl]amino]-3,3-dimethyl-butanoyl]-N-[rac-(1S)-1-[4-(4-methylthiazol-5-yl)phenyl]ethyl]pyrrolidine-2-carboxamide], the Emax is 48% and the DC50 was found to be 426 nM.

On to `Cc1ncsc1-c1ccc([C@H](C)NC(=O)[C@@H]2C[C@@H](O)CN2C(=O)[C@@H](NC(=O)CCCCCC(=O)N2CCN(c3ccc(CN4CCCC(Oc5cc(-c6ccccc6O)nnc5N)C4)cc3)CC2)C(C)(C)C)cc1` (mixture of isomers) [Example 40, rac-(2S,4R)-4-hydroxy-1-[rac-(2S)-2-[[7-[4-[4-[[3-[3-amino-6-(2-hydroxyphenyl)pyridazin-4-yl]oxy-1-piperidyl]methyl]phenyl]piperazin-1-yl]-7-oxo-heptanoyl]amino]-3,3-dimethyl-butanoyl]-N-[rac-(1S)-1-[4-(4-methylthiazol-5-yl)phenyl]ethyl]pyrrolidine-2-carboxamide], for which the Emax turned out to be 46% and the DC50 is 349 nM.

Consider `Cc1ncsc1-c1ccc([C@H](C)NC(=O)[C@@H]2C[C@@H](O)CN2C(=O)[C@@H](NC(=O)CCCCCCCCC(=O)N2CCN(c3ccc(CN4CCCC(Oc5cc(-c6ccccc6O)nnc5N)C4)cc3)CC2)C(C)(C)C)cc1` (mixture of isomers) [Example 41, rac-(2S,4R)-4-hydroxy-1-[rac-(2S)-2-[[10-[4-[4-[[3-[3-amino-6-(2-hydroxyphenyl)pyridazin-4-yl]oxy-1-piperidyl]methyl]phenyl]piperazin-1-yl]-10-oxo-decanoyl]amino]-3,3-dimethyl-butanoyl]-N-[rac-(1S)-1-[4-(4-methylthiazol-5-yl)phenyl]ethyl]pyrrolidine-2-carboxamide], for which the Emax stood at 63% and the DC50 stood at 204 nM.

In the case of `Cc1ncsc1-c1ccc([C@H](C)NC(=O)[C@@H]2C[C@@H](O)CN2C(=O)[C@@H](NC(=O)CCOCCOCCOCCC(=O)N2CCN(c3ccc(N4CCCC(Oc5cc(-c6ccccc6O)nnc5N)C4)cc3)CC2)C(C)(C)C)cc1` (mixture of isomers) [Example 46, rac-(2S,4R)-4-hydroxy-1-[rac-(2S)-2-[3-[2-[2-[3-[4-[4-[3-[3-amino-6-(2-hydroxyphenyl)pyridazin-4-yl]oxy-1-piperidyl]phenyl]piperazin-1-yl]-3-oxo-propoxy]ethoxy]ethoxy]propanoylamino]-3,3-dimethyl-butanoyl]-N-[rac-(1S)-1-[4-(4-methylthiazol-5-yl)phenyl]ethyl]pyrrolidine-2-carboxamide], the Emax turned out to be 51% and the DC50 is 2610 nM.

Turning to `Cc1ncsc1-c1ccc([C@H](C)NC(=O)[C@@H]2C[C@@H](O)CN2C(=O)[C@@H](NC(=O)CCC(=O)N2CCN(c3ccc(N4CCCC(Oc5cc(-c6ccccc6O)nnc5N)C4)cc3)CC2)C(C)(C)C)cc1` (mixture of isomers) [Example 47, rac-(2S,4R)-4-hydroxy-1-[rac-(2S)-2-[[4-[4-[4-[3-[3-amino-6-(2-hydroxyphenyl)pyridazin-4-yl]oxy-1-piperidyl]phenyl]piperazin-1-yl]-4-oxo-butanoyl]amino]-3,3-dimethyl-butanoyl]-N-[rac-(1S)-1-[4-(4-methylthiazol-5-yl)phenyl]ethyl]pyrrolidine-2-carboxamide], the maximal effect (Emax) came to 55% and the DC50 is 733 nM.

On to `Cc1ncsc1-c1ccc([C@H](C)NC(=O)[C@@H]2C[C@@H](O)CN2C(=O)[C@@H](NC(=O)CCCCCCCCCCC(=O)N2CCN(c3ccc(N4CCCC(Oc5cc(-c6ccccc6O)nnc5N)C4)cc3)CC2)C(C)(C)C)cc1` (mixture of isomers) [Example 48, rac-(2S,4R)-4-hydroxy-1-[rac-(2S)-2-[[12-[4-[4-[3-[3-amino-6-(2-hydroxyphenyl)pyridazin-4-yl]oxy-1-piperidyl]phenyl]piperazin-1-yl]-12-oxo-dodecanoyl]amino]-3,3-dimethyl-butanoyl]-N-[rac-(1S)-1-[4-(4-methylthiazol-5-yl)phenyl]ethyl]pyrrolidine-2-carboxamide], for which the Emax is 22% and the DC50 came to 135 nM.

For `Cc1ncsc1-c1ccc([C@H](C)NC(=O)[C@@H]2C[C@@H](O)CN2C(=O)[C@@H](NC(=O)CCOCCC(=O)N(C)CC(COc2cc(-c3ccccc3O)nnc2N)c2ccccc2)C(C)(C)C)cc1` (mixture of isomers) [Example 49, rac-(2S,4R)-4-hydroxy-1-[rac-(2S)-2-[3-[3-[[3-[3-amino-6-(2-hydroxyphenyl)pyridazin-4-yl]oxy-2-phenyl-propyl]-methyl-amino]-3-oxo-propoxy]propanoylamino]-3,3-dimethyl-butanoyl]-N-[rac-(1S)-1-[4-(4-methylthiazol-5-yl)phenyl]ethyl]pyrrolidine-2-carboxamide], the Emax was determined as 60% and the DC50 was determined as 1660 nM.

With `Cc1ncsc1-c1ccc(CNC(=O)[C@@H]2C[C@@H](O)CN2C(=O)[C@@H](NC(=O)CCCCCCCCC(=O)NCC(COc2cc(-c3ccccc3O)nnc2N)c2ccccc2)C(C)(C)C)cc1` (mixture of isomers) [Example 51, N-[3-[3-amino-6-(2-hydroxyphenyl)pyridazin-4-yl]oxy-2-phenyl-propyl]-N′-[rac-(1S)-2,2-dimethyl-1-[rac-(2S,4R)-4-hydroxy-2-[[4-(4-methylthiazol-5-yl)phenyl]methylcarbamoyl]pyrrolidine-1-carbonyl]propyl]decanediamide], the Emax was 48% and the DC50 is 1650 nM.
